Legend:
[1] = target: CYP3A4 (Homo sapiens, UniProt P08684); experiment: biochemical
[2] = Kinetic solubility in PBS (nephelometer); assay type: physicochemical; details: Dulbecco's phosphate-buffered saline (DPBS), 25 °C, pH 7.2, aqueous buffer, kinetic from dmso stock, 1% DMSO, room temperature, n = 7
Text: Anticipating that the carboxylate side chain may hinder BBB penetrance, we synthesized and biologically screened a series of 2i prodrugs with ester and amide masking groups. With the classical physiochemical parameters required for brain exposure (i.e., molecular weight, MW, lipophilicity, and topological polar surface area, TPSA) and drug release mechanisms beyond the BBB in mind, we focused on simple alkyl-based promoieties. Our selected lead compound (2i), a close analogue (2a), and their corresponding prodrugs (2l–r) were studied in vitro to ascertain drug solubility, metabolic stability in liver microsomes (LMs), plasma stability, mouse brain homogenate stability, and cytochrome P450 (CYP450) inhibition (Tables S3 and S4 for predicted absorption, distribution, metabolism, and excretion or ADME parameters). […]
Methods for Kinetic Solubility Experiments
The test compounds were first dissolved in DMSO to provide stock solutions of either 30 mM or 60 mM. Kinetic solubility experiments were then performed in a 96-well microtiter plate (Clear-Bottom, Black, Corning® Costar) with a final volume of 250 µL per well in rows B-H. Each plate was initially prepared with the addition of 16 μL of DMSO to well A3, 20 μL to well A4, 27 μL to well A5, and 40 μL to all remaining wells in row A (A1 and A6-12). Next, the test compound (30 μL of DMSO stock solution) was directly added to well A2 without further modification. Moreover, the test compound (64 μL of DMSO stock solution) was diluted in well A3 to give a total volume of 80 μL. Further dilutions were then conducted by removing 60 µL from well A3 and adding it to A4, followed by removing 53 µL from well A4 and adding it to A5, followed by removing 40 µL from well A5 and adding it to A6, and sequentially removing 40 µL from the remaining wells up to A12. Well A1 served as a DMSO blank.
The sample solutions prepared in row A (2.5 µL from each well) were transferred to the corresponding wells in rows B-H. Dulbecco’s phosphate-buffered saline (DPBS, Gibco®, 1X, no Ca2+ and Mg2+, pH […]
7.1-7.3) was then added to all wells in rows B-H (30 µL each), and the 96-well plate was incubated at 25 °C for 1 min. Next, DPBS (217.5 µL) was added to all wells in rows B-H, and the 96-well plate was once more incubated at 25 °C for 2 h. This procedure provided seven replicate experiments with final concentrations of the test compound (1% DMSO in DPBS) ranging from either 300 to 0.9375 µM or 600 to 1.875 µM in rows B-H, depending on the whether a 30 mM or 60 mM DMSO stock solution was used, respectively (i.e. a 100-fold dilution from sample preparation in row A). After incubation, the plates were analyzed using a NEPHELOstar® microplate reader, and the segmental linear regression data was processed with MARS analysis software (BMG LabTech, see Supplemental Figure S4A for a representative example). […]
Synergy-S diffractometer. The crystal was kept at a steady T = 100.0(3) K during data collection. The structure was solved with the ShelXT 2018/2 (Sheldrick, 2015, Bauer and Gotz, 2021) solution program using dual methods and by using Olex2 1.5-alpha (Dolomanov et al., 2009) as the graphical interface.
The model was refined with olex2.refine 1.5-alpha (Bourhis et al., 2015) using full matrix least squares […]
which were used in all calculations. The final wR2 was 0.0983 (all data) and R1 was 0.0412 (I≥2 s(I)).

CYP3A4, sequence (P08684 whole entry): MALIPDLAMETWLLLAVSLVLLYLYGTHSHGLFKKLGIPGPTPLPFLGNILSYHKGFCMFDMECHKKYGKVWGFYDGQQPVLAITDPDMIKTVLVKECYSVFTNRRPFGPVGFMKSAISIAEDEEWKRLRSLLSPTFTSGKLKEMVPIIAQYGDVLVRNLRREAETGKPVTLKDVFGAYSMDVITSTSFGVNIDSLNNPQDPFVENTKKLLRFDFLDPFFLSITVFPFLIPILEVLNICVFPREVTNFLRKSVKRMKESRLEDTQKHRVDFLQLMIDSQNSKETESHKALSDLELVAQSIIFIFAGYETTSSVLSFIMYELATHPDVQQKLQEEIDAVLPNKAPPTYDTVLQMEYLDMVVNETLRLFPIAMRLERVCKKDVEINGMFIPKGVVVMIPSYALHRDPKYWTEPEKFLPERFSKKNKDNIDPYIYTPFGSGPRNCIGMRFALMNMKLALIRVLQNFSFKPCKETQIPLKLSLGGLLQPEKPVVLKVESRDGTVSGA

IC50 [1]	solubility kinetic at 2 h [2]	SMILES
> 20 µM	40 ± 12 µM	O=C(CC(F)(F)C(=O)N1N=C(c2c(-c3ccc(Cl)cc3)c3ccccc3[nH]c2=O)CC1c1ccc(Cl)cc1)OCc1ccccc1 (centres unmarked) [2p]
> 20 µM	43 ± 5.1 µM	CN(C)C(=O)CC(F)(F)C(=O)N1N=C(c2c(-c3ccc(Cl)cc3)c3ccccc3[nH]c2=O)CC1c1ccc(Cl)cc1 (centres unmarked) [2r]
7.8 ± 0.1 µM	43 ± 18 µM	CCOC(=O)CC(F)(F)C(=O)N1N=C(c2c(-c3ccc(Cl)cc3)c3ccccc3[nH]c2=O)CC1c1ccc(Cl)cc1 (centres unmarked) [2l]
12 ± 0.04 µM	52 ± 6.3 µM	CC(C)(C)COC(=O)CC(F)(F)C(=O)N1N=C(c2c(-c3ccc(Cl)cc3)c3ccccc3[nH]c2=O)CC1c1ccc(Cl)cc1 (centres unmarked) [2o]
17 ± 3.4 µM	~208 µM	O=C(O)CCC(=O)N1N=C(c2c(-c3ccc(Cl)cc3)c3ccccc3[nH]c2=O)CC1c1ccc(Cl)cc1 (centres unmarked) [2a]
7.7 ± 1.7 µM	52 ± 13 µM	CNC(=O)CC(F)(F)C(=O)N1N=C(c2c(-c3ccc(Cl)cc3)c3ccccc3[nH]c2=O)CC1c1ccc(Cl)cc1 (centres unmarked) [2q]
2 ± 0.4 µM	~30 µM	NC(=O)CC(F)(F)C(=O)N1N=C(c2c(-c3ccc(Cl)cc3)c3ccccc3[nH]c2=O)CC1c1ccc(Cl)cc1 (centres unmarked) [2k]
6.7 ± 1.2 µM	27 ± 9 µM	O=C(CC(F)(F)C(=O)N1N=C(c2c(-c3ccc(Cl)cc3)c3ccccc3[nH]c2=O)CC1c1ccc(Cl)cc1)OCC1CC1 (centres unmarked) [2n]
> 20 µM	~38 µM	O=C(O)CC(F)(F)C(=O)N1N=C(c2c(-c3ccc(Cl)cc3)c3ccccc3[nH]c2=O)CC1c1ccc(Cl)cc1 (centres unmarked) [2i]
6.3 ± 1.1 µM	43 ± 10 µM	CC(C)OC(=O)CC(F)(F)C(=O)N1N=C(c2c(-c3ccc(Cl)cc3)c3ccccc3[nH]c2=O)CC1c1ccc(Cl)cc1 (centres unmarked) [2m]

— article PMC10485906, “Development of a Dihydroquinoline–Pyrazoline GluN2C/2D-Selective Negative Allosteric Modulator of the N-Methyl-D-aspartate Receptor” (ACS Chemical Neuroscience, 2023)
